Results published in PubChem BioAssay (NCI).
Values joined by “and” are separate entries in the source; they are usually repeats but may differ in a detail not shown here. Equal entries are not always repeated.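 Interpolation was linear, between the two tested concentrations surrounding the appropriate level; five concentrations were tested over 48 hours in 96-well plates. Here, GI50 denotes the concentration required for 50% inhibition of growth. TGI: total growth inhibition.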

Columns and labels:
Test in all cases: NCI tumour cell line growth inhibition, 48 h
[1] = test system: SK-OV-3 ovarian
[2] = test system: XF 498 CNS
[3] = test system: T-47D breast
[4] = test system: LXFL 529 NSCLC
[5] = test system: MCF7 breast
[6] = test system: DU-145 prostate
[7] = test system: HS 578T breast
[8] = test system: CCRF-CEM leukemia
[9] = test system: HCT-116 colon
[10] = test system: MDA-MB-435
[11] = test system: SF-539 CNS
[12] = test system: HT29 colon
[13] = test system: SR leukemia
[14] = test system: KM20L2 colon
[15] = test system: 786-0 renal
[16] = test system: A549 NSCLC
[17] = test system: SNB-78 CNS
[18] = test system: RXF 393 renal
[19] = test system: HCT-15 colon
[20] = test system: UACC-257 melanoma
[21] = test system: P388 leukemia
[22] = test system: ACHN renal
[23] = test system: K-562 leukemia
[24] = test system: KM12 colon
[25] = test system: NCI/ADR-RES ovarian
[26] = test system: MOLT-4 leukemia
[27] = test system: OVCAR-3 ovarian
[28] = test system: TK-10 renal
[29] = test system: LOX IMVI melanoma
[30] = test system: HL-60(TB) leukemia
[31] = test system: SK-MEL-28 melanoma
[32] = test system: DMS 114 small cell lung
[33] = test system: DMS 273 small cell lung
[34] = test system: P388/ADR leukemia
[35] = test system: UO-31 renal
[36] = test system: NCI-H460 lung
[37] = test system: M19-MEL melanoma
[38] = test system: RPMI-8226 leukemia
[39] = test system: HOP-18 NSCLC
[40] = test system: SN12K1 renal
[41] = test system: SNB-19 CNS
[42] = test system: MDA-MB-231 breast
[43] = test system: SF-295 CNS
[44] = test system: MDA-N
[45] = test system: PC-3 prostate
[46] = test system: SF-268 CNS
[47] = test system: HCC-2998 colon
[48] = test system: HOP-92 NSCLC
[49] = test system: SNB-75 CNS
[50] = test system: IGROV1 ovarian
[51] = test system: BT-549 breast
[52] = test system: OVCAR-8 ovarian
[53] = test system: CAKI-1 renal
[54] = test system: NCI-H522 lung
[55] = test system: DLD-1 colon
[56] = test system: A498 renal

## S=P(N1CC1)(N1CC1)N1CC1
[1]
  GI50: 16 µM and 143 µM
  TGI: 47.2 µM and 406 µM and 296 µM
[2]
  GI50: 13.2 µM
  TGI: 35.8 µM and 230 µM
[3]
  GI50: 45.5 µM
  TGI: 950 µM and 913 µM
[4]
  GI50: 21.9 µM
  TGI: 40 µM and 314 µM
[5]
  TGI: 311 µM and 550 µM
[6]
  GI50: 11.9 µM
  TGI: 520 µM and 97.8 µM
[7]
  GI50: 534 µM
  TGI: 913 µM and 962 µM
[8]
  GI50: 2.11 µM
  TGI: > 85.8 µM and 622 µM
[9]
  GI50: 21.2 µM and 171 µM
  TGI: 46.1 µM and 317 µM and 367 µM
[10]
  GI50: 276 µM
  TGI: 403 µM and 509 µM
[11]
  GI50: 11.4 µM and 23.3 µM
  TGI: 49 µM and 223 µM and 182 µM
[12]
  TGI: 66.7 µM and 500 µM and 617 µM
[13]
  TGI: > 51.4 µM and 441 µM
[14]
  GI50: 30 µM
  TGI: 62 µM and 464 µM
[15]
  GI50: 5.33 µM and 52.4 µM
  TGI: 31.2 µM and 187 µM and 306 µM
[16]
  GI50: 10.2 µM and 84 µM
[17]
  GI50: 46.1 µM
  TGI: 960 µM
[18]
  GI50: 18.8 µM
  TGI: 39.6 µM and 251 µM and 308 µM
[19]
  GI50: 26.2 µM
[20]
  GI50: 29 µM and 272 µM
[21]
  TGI: 328 µM
[22]
  GI50: 3.39 µM
  TGI: 37.3 µM and 335 µM
[23]
  GI50: 24.5 µM
  TGI: 834 µM and 911 µM
[24]
  GI50: 27 µM
[25]
  GI50: 53.8 µM
  TGI: 511 µM and 225 µM
[26]
  GI50: 1.27 µM
  TGI: 53.4 µM and 334 µM and 54.9 µM
[27]
  TGI: 48.8 µM and 381 µM and 470 µM
[28]
  GI50: 44.5 µM and 127 µM
  TGI: > 95.3 µM and 877 µM and 522 µM
[29]
  GI50: 7.14 µM and 54.5 µM
  TGI: 42 µM and 307 µM and 294 µM
[30]
  GI50: 0.942 µM and 1.95 µM
[31]
  GI50: 34.7 µM
  TGI: 72.6 µM and 574 µM
[32]
  GI50: 5.78 µM
  TGI: 36.1 µM and 249 µM
[33]
  GI50: 2.76 µM
  TGI: 37.1 µM and 290 µM
[34]
  TGI: 351 µM
[35]
  GI50: 18.2 µM and 28.3 µM
  TGI: 39.3 µM and 288 µM and 69 µM
[36]
  GI50: 0.588 µM
  TGI: 31.7 µM and 195 µM
[37]
  GI50: 25.7 µM
  TGI: 63 µM and 438 µM
[38]
  GI50: 28 µM
  TGI: 92.3 µM and 792 µM and 706 µM
[39]
  GI50: 41.5 µM
  TGI: 640 µM
[40]
  TGI: 373 µM
[41]
  GI50: 18.5 µM and 180 µM
  TGI: > 78.4 µM and 719 µM and 787 µM
[42]
  GI50: 529 µM
  TGI: 678 µM and 777 µM
[43]
  GI50: 6.78 µM
[44]
  GI50: 257 µM
  TGI: 426 µM and 671 µM
[45]
  GI50: 310 µM
  TGI: 805 µM and 834 µM
[46]
  GI50: 8.67 µM and 24.8 µM
  TGI: 60.6 µM and 536 µM and 476 µM
[47]
  GI50: 22.5 µM and 208 µM
[48]
  GI50: 25.2 µM and 168 µM
  TGI: 50.2 µM and 376 µM and 345 µM
[49]
  GI50: 20.4 µM and 186 µM
  TGI: 57.7 µM and 403 µM and 498 µM
[50]
  GI50: 38.8 µM and 280 µM
  TGI: 77.2 µM and 361 µM and 507 µM
[51]
  GI50: 224 µM
  TGI: 507 µM and 445 µM
[52]
  GI50: 20.1 µM and 93.7 µM
  TGI: 58.5 µM and 523 µM and 323 µM
[53]
  GI50: 6.08 µM and 20 µM
[54]
  GI50: 15 µM and 125 µM
  TGI: 33.6 µM and 273 µM and 329 µM
[55]
  GI50: 33.2 µM
  TGI: 77.2 µM and 682 µM
[56]
  GI50: 24.5 µM
  TGI: 39.8 µM and 280 µM
